Results from article PMC2074382 (British Journal of Cancer, 1996).
Where “and” joins values, the source holds several entries; their conditions need not be identical. Equal entries are not always repeated. Structures can show the parent of a compound that is named as a salt.

Experiment: Pharmacokinetics (lactone form, HPLC, non-compartmental) in plasma and urine, days 1 and 4 of first course
Conditions: for fe, fraction of the drug excreted unchanged / Clr, renal clearance: Table VI
Excerpt: British Journal of Cancer (1996) 73, 744-750 O (C? 1996 Stockton Press All rights reserved 0007-0920/96 $12.00 Phase I and pharmacological study of the new topoisomerase I inhibitor G1147211, using a daily x 5 intravenous administration CJH Gerrits', GJ Creemers', JHM Schellens', P Wissel2, AS Th Planting', R Kunka2, K Selinger2, M de Boer-Dennert', Y Marijnen3, M Harteveld' and J Verweijl 'Department of Medical Oncology, Rotterdam Cancer Institute, Rotterdam, The Netherlands; 2Glaxo Wellcome Inc, Department of Clinical Pharmacology, NC, USA; 3Glaxo Wellcome Inc, Department of Clinical Research, Zeist, The Netherlands. Summary Topoisomerase I inhibitors are interesting anti-cancer agents with a novel mechanism of action. […] In subsequent patient cohorts the dose was escalated from 0.3 to 1.5 mg m-2 day-'. Pharmacokinetics analysis was performed on days 1 and 4 of the first course using a validated high- performance liquid chromatographic assay and non-compartmental methods. […] Its further development was stopped because of unpredictable and severe myelosuppression, gastrointestinal toxicity and haemorrhagic cystitis. In the late 1980s two discoveries brought about a renewal of interest in CPT; firstly, topoisomerase I was identified as the single cellular target of CPT (Hsiang et al., 1985; Hsiang and Liu, 1988) and, secondly, an overexpression of topoisomerase I was found in various tumour cell lines but not in normal tissues (Giovanella et al., 1989; Hirabayaski et al., 1992; Potmesil et al., 1988). Topoisomerase I is a nuclear enzyme that resolves topological problems of the torsionally strained (supercoiled) DNA (Slichenmyer et al., 1993). This is achieved by forming a covalent adduct between topoisome- rase I and the DNA, termed the cleavable complex. This catalytic intermediate creates single-strand DNA breaks, allowing the DNA molecule to rotate around the intact DNA strand at the cleavage site, leading to a relaxation of the DNA molecule and in this way replication, transcription and other DNA functions can proceed. These enzyme- bridged breaks are then resealed by topoisomerase I. CPT stabilises the cleavable complexes, thereby preventing resealing of single-strand DNA breaks in the presence of the drug (Covey et al., 1989; D'Arpa and Liu, 1989; Eng et al., 1988). Cytotoxicity is specific to the S-phase of the cell cycle because the double-strand breaks that occur during this phase are more difficult to repair in the presence of the drug (Horwitz and Horwitz, 1973). […] Other eligibility criteria included: (1) age>, 18 years; (2) an Eastern Cooperative Oncology Group (ECOG) performance status <2; (3) a predicted life expectancy of at least 3 months; (4) no previous anti-cancer therapy for at least 3 weeks (6 weeks for previous nitro- soureas or mitomycin C); (5) adequate haemato- poietic (WBC) 3 x 109 -', ANC > 1.5 x 109 1-' and platelets 100 x 10 1- 1), hepatic (bilirubin within normal limits, AST, ALT and/or alkaline phosphatase < 2.0 x normal), and renal (serum creatinine < 130 imol 1-') functions. All patients gave written informed consent.

[1] = 1.2 mg m-2, day 1, mean of dose level
[2] = 1.2 mg m-2, day 4, individual patients 7-12 in order
[3] = 1.2 mg m-2, day 4, mean of dose level
[4] = 1.5 mg m-2, day 1, individual patients 13, 15-18 in order
[5] = 1.5 mg m-2, day 1, individual patients 13-18 in order
[6] = 1.5 mg m-2, day 1, mean of dose level
[7] = 1.5 mg m-2, day 4, individual patients 13-18 in order
[8] = 1.5 mg m-2, day 4, mean of dose level
[9] = day 4, individual patients 1-3, 5-12, 16-18 in order

CC[C@@]1(O)C(=O)OCc2c1cc1n(c2=O)Cc2c-1nc1cc3c(cc1c2CN1CCN(C)CC1)OCCO3 [GI147211, [7 - (methylpiperazinomethylene) - 10,11 - ethylene-dioxy-20(S)] camptothecin dihydrochloride]
Cmax, mean [1]: 14.98 ng/mL | MRT, mean [1]: 3.47 h | Vdss, mean [1]: 203 l m-2 | t1/2, mean [1]: 3.45 h | tmax, mean [1]: 0.39 h | AUCinf [2]: 20.59 ng·h/mL and 37.83 ng·h/mL and 21.10 ng·h/mL and 14.84 ng·h/mL and 26.62 ng·h/mL and 16.96 ng·h/mL | Clearance, total plasma clearance [2]: 971 ml min-1 m-2 and 529 ml min-1 m-2 and 948 ml min-1 m-2 and 1348 ml min-1 m-2 and 802 ml min-1 m-2 and 1179 ml min-1 m-2 | Cmax [2]: 18.66 ng/mL and 20.03 ng/mL and 16.21 ng/mL and 9.62 ng/mL and 12.74 ng/mL and 11.63 ng/mL | MRT [2]: 3.06 h and 5.62 h and 3.47 h and 3.96 h and 7.06 h and 4.44 h | Vdss [2]: 163 l m-2 and 167 l m-2 and 182 l m-2 and 299 l m-2 and 307 l m-2 and 291 l m-2 | t1/2, elimination half-life [2]: 3.02 h and 4.07 h and 2.70 h and 2.20 h and 6.99 h and 4.99 h | tmax [2]: 0.25 h and 0.42 h (5×) | AUCinf, mean [3]: 22.99 ng·h/mL | Clearance, mean [3]: 963 ml min-1 m-2 | Cmax, mean [3]: 14.82 ng/mL | MRT, mean [3]: 4.60 h | Vdss, mean [3]: 235 l m-2 | t1/2, mean [3]: 3.99 h | tmax, mean [3]: 0.39 h | AUCinf [4]: 24.66 ng·h/mL and 24.39 ng·h/mL and 23.32 ng·h/mL and 22.64 ng·h/mL and 28.37 ng·h/mL | Clearance, total plasma clearance [4]: 1014 ml min-1 m-2 and 1025 ml min-1 m-2 and 1072 ml min-1 m-2 and 1104 ml min-1 m-2 and 881 ml min-1 m-2 | MRT [4]: 5.11 h and 3.57 h and 3.32 h and 3.65 h and 3.78 h | Vdss [4]: 296 l m-2 and 204 l m-2 and 197 l m-2 and 225 l m-2 and 186 l m-2 | t1/2, elimination half-life [4]: 4.98 h and 4.62 h and 4.37 h and 4.61 h and 4.42 h | Cmax [5]: 15.08 ng/mL and 27.48 ng/mL and 19.21 ng/mL and 19.53 ng/mL and 18.91 ng/mL and 15.90 ng/mL | tmax [5]: 0.25 h (3×) and 0.42 h (2×) and 0.75 h | AUCinf, mean [6]: 24.68 ng·h/mL | Clearance, mean [6]: 1019 ml min-1 m-2 | Cmax, mean [6]: 19.35 ng/mL | MRT, mean [6]: 3.89 h | Vdss, mean [6]: 222 l m-2 | t1/2, mean [6]: 4.60 h | tmax, mean [6]: 0.39 h | AUCinf [7]: 26.92 ng·h/mL and 29.51 ng·h/mL and 30.85 ng·h/mL and 34.51 ng·h/mL and 24.85 ng·h/mL and 52.70 ng·h/mL | Clearance, total plasma clearance [7]: 929 ml min-1 m-2 and 847 ml min-1 m-2 and 810 ml min-1 m-2 and 724 ml min-1 m-2 and 1006 ml min-1 m-2 and 474 ml min-1 m-2 | Cmax [7]: 20.02 ng/mL and 23.81 ng/mL and 25.41 ng/mL and 32.19 ng/mL and 21.18 ng/mL and 28.25 ng/mL | MRT [7]: 5.06 h and 2.56 h and 3.04 h and 4.47 h and 5.75 h and 4.74 h | Vdss [7]: 261 l m-2 and 117 l m-2 and 144 l m-2 and 178 l m-2 and 319 l m-2 and 126 l m-2 | t1/2, elimination half-life [7]: 4.95 h and 3.44 h and 4.35 h and 5.62 h and 5.82 h and 4.43 h | tmax [7]: 0.42 h (4×) and 0.25 h (2×) | AUCinf, mean [8]: 33.22 ng·h/mL | Clearance, mean [8]: 798 ml min-1 m-2 | Cmax, mean [8]: 25.14 ng/mL | MRT, mean [8]: 4.27 h | Vdss, mean [8]: 191 l m-2 | t1/2, mean [8]: 4.77 h | tmax, mean [8]: 0.36 h | relation of AUC to the dose (0.3-1.5 mg m-2, Figure 3 day 4 of course 1): linearly related to the dose | terminal half-life (abstract, all patients): 3.7 ± 1.2 h | total plasma clearance (abstract, all patients): 999 ± 184 mL/min | total plasma clearance, range (abstract, all patients): 640 to 1329 mL/min | volume of distribution (abstract, all patients): 190+/-461 m-2 | fraction of the drug excreted unchanged in the urine (fe) (day 1): 0.14 ± 0.07 | renal clearance (day 1): 140+74 ml min-1 m-2 | Clr, mean (day 1, Table VI): 251 ml min-1 and 140 ml min-1 m-2 | fe, mean (day 1, Table VI): 0.143 | Total plasma clearance (mean+s.d.) (day 1, all dose levels): 1014+ 177.0 ml min-1 m-2 | Vdss (mean+s.d.) (day 1, all dose levels): 193+ 45.9 l m-2 | mean residence time (MRT) (mean+s.d.) (day 1, all dose levels): 3.53+0.93 h | t1/2 (mean+s.d.) (day 1, all dose levels): 3.54+0.99 h | fe, fraction of the drug excreted unchanged (day 1, individual patients 1-12, 14, 15 in order): 0.114 and 0.081 and 0.212 and 0.115 and 0.156 and 0.149 and 0.106 and 0.101 and 0.088 and 0.085 and 0.116 and 0.347 and 0.191 and 0.135 | Clr, renal clearance (day 1, individual patients 1-12, 15 in order): 232 ml min-1 and 116 ml min-1 m-2 and 184 ml min-1 and 101 ml min-1 m-2 (2×) and 333 ml min-1 and 222 ml min-1 m-2 and 231 ml min-1 and 115 ml min-1 m-2 and 161 ml min-1 and 194 ml min-1 and 107 ml min-1 m-2 (2×) and 201 ml min-1 and 122 ml min-1 m-2 and 151 ml min-1 and 84 ml min-1 m-2 and 203 ml min-1 and 226 ml min-1 and 113 ml min-1 m-2 and 208 ml min-1 and 119 ml min-1 m-2 and 663 ml min-1 and 358 ml min-1 m-2 and 280 ml min-1 and 150 ml min-1 m-2 | Clr, mean (day 4, Table VI): 244 ml min-1 and 138 ml min-1 m-2 | Clr, renal clearance [9]: 175 ml min-1 and 88 ml min-1 m-2 and 128 ml min-1 and 70 ml min-1 m-2 and 430 ml min-1 and 287 ml min-1 m-2 and 192 ml min-1 and 120 ml min-1 m-2 and 225 ml min-1 and 123 ml min-1 m-2 and 196 ml min-1 and 119 ml min-1 m-2 and 212 ml min-1 and 118 ml min-1 m-2 and 241 ml min-1 and 127 ml min-1 m-2 and 344 ml min-1 and 172 ml min-1 m-2 and 314 ml min-1 and 179 ml min-1 m-2 and 459 ml min-1 and 248 ml min-1 m-2 and 218 ml min-1 and 128 ml min-1 m-2 and 182 ml min-1 and 91 ml min-1 m-2 and 101 ml min-1 and 59 ml min-1 m-2 | fe, fraction of the drug excreted unchanged [9]: 0.109 and 0.095 and 0.428 and 0.181 and 0.197 and 0.122 and 0.219 and 0.133 and 0.128 and 0.239 and 0.210 and 0.177 and 0.090 and 0.125
